Test results published in patent US20190274975A1, “NANOPARTICLES FOR STIMULATING ELASTOGENESIS” (The Cleveland Clinic Foundation, priority 2013, published 2019).

How the values were obtained:
[1] = system: aneurysmal RASMC cultures; assay: Exogenous DOX on aneurysmal RASMC cultures (previous studies by the inventors); assay type: cell-based, rat
[2] = equivalent to standard oral doses; mice and human patients; Ding et al. 2005; cited from earlier work

SMILES: C[C@H]1c2cccc(O)c2C(=O)C2=C(O)[C@]3(O)C(=O)C(C(N)=O)=C(O)[C@@H](N(C)C)[C@@H]3[C@@H](O)[C@@H]21 [DOX, doxycycline]
- exogenously delivered dose observed to inhibit proliferation and elastic matrix synthesis by EaRASMCs ([1]; observed by the inventors): 5.0 µg/mL
- exogenous DOX dosage that limited the viability of aneurysmal RASMC cultures ([1]; previous studies by the inventors): 5.0 µg/mL
- DOX concentration measured within AAA tissues [2]: ~50 ng/mL
